Patent publication US20070190143A1, “Disintegrating tablets comprising licarb azepine” (priority 2004, published 2007)
Converted amounts (≈) assume the structure as drawn.

Assay: solubility in water
Assay type: physicochemical
Conditions: 25° C.
Source text: Licarbazepine is indicated to be suitable for the treatment of psychosomatic disturbances, epilepsy, trigeminal neuralgia and cerebral spasticity. […] The mechanisms by which the compounds of the invention exert their anticonvulsant effects are not completely understood, but their activity may be partly due to effects on ion flow across neuronal membranes. However, pharmacokinetics, absorption sites and mechanisms of action of the compounds of the invention are not understood in detail. Licarbazepine is slightly soluble in water (3.2 mg/ml at 25° C.). In view of this physical property, a parenteral formulation of licarbazepine can be prepared as described, e. g., in EP-1 033 988. Despite the merits of the known parenteral dosage form, there remains a need to establish an advantageous oral dosage form of the compounds of the invention. One of the problems that may occur using an oral dosage form is the fluctuation of blood levels of the compounds of the invention on repeated administration, which may be associated with side effects.

- solubility: 3200 µg/mL (≈ 12.6 mM)
Compound: NC(=O)N1c2ccccc2CC(O)c2ccccc21 (racemic) [Licarbazepine, 10,11-dihydro-10-hydroxy-5H-dibenz[b,f]azepine-5-carboxamide]
